Test results from ChEMBL document CHEMBL4229478, “Synthesis, Characterization, and Biological Evaluation of a Porphyrin-Based Photosensitizer and Its Isomer for Effective Photodynamic Therapy against Breast Cancer” (J Med Chem, 2018).
Active and inactive are the calls of the source. The rule behind the calls is not given here.

Key:
[1] = Induction of singlet oxygen generation in cell free condition upon 635 nm semiconductor laser light irradiation by singlet oxygen sensor green dye based fluorescence spectrophotometeric analysis; format: functional
4T1 [2] = assay: Phototoxicity against mouse 4T1 cells assessed as cell viability at 0.5 uM preincubated for 4 hrs followed by 1 J/cm2 light irradiation and measured after 24 hrs by MTT assay relative to control; format: functional; settings: 4T1, light or radiation study, read-out: Activity
4T1 [3] = assay: Phototoxicity against mouse 4T1 cells assessed as cell viability at 0.5 uM preincubated for 4 hrs followed by 2 J/cm2 light irradiation and measured after 24 hrs by MTT assay relative to control; format: functional; settings: 4T1, light or radiation study, read-out: Activity
HUVEC = assay: Phototoxicity against HUVEC assessed as cell viability at 0.5 uM preincubated for 4 hrs followed by 0.5 to 2 J/cm2 light irradiation and measured after 24 hrs by MTT assay; format: cell-based; settings: human
[4] = Dark toxicity against human MDA-MB-231 cells assessed as cell viability at 0.5 uM after 24 hrs by MTT assay; format: cell-based; settings: mda-mb-231, 24 h
4T1 [5] = assay: Antitumor activity against mouse 4T1 cells xenografted in BALB/c mouse assessed as inhibition of tumor volume at 1 mg/kg, iv pretreated for 24 hrs followed by 50 J/cm2 light irradiation and measured at day 22 post dose relative to control; format: functional; settings: 4T1, light or radiation study
[6] = Selectivity index, ratio of dark toxicity against mouse 4T1 cells at 0.5 uM to phototoxicity against mouse 4T1 cells at 0.5 uM; format: cell-based; settings: read-out: Selectivity Index
[7] = Selectivity index, ratio of dark toxicity against human MCF7 at 0.5 uM cells to phototoxicity against human MCF7 cells at 0.5 uM; format: cell-based; settings: read-out: Selectivity Index
[8] = Drug uptake in human MDA-MB-231 cells at 5 uM after 4 hrs by fluorescence microscopic analysis; format: ADME, cell-based; settings: mda-mb-231, 4 h
[9] = Drug uptake in human MDA-MB-231 cells at 5 uM by flow cytometric analysis; format: ADME, cell-based; settings: mda-mb-231, 5 µM, TDE = time-dependent effect
[10] = Drug uptake in kidney of BALB/c mouse xenografted with mouse 4T1 cells at 10 mg/kg, iv measured at 12 hrs post injection by IVIS spectrum imaging; format: ADME, organism-based; settings: in vivo
[11] = Drug uptake in spleen of BALB/c mouse xenografted with mouse 4T1 cells at 10 mg/kg, iv measured at 12 hrs post injection by IVIS spectrum imaging; format: ADME, organism-based; settings: in vivo
[12] = Drug uptake in heart of BALB/c mouse xenografted with mouse 4T1 cells at 10 mg/kg, iv measured at 12 hrs post injection by IVIS spectrum imaging; format: ADME, organism-based; settings: in vivo
[13] = Drug uptake in mitochondria of human MDA-MB-231 cells at 10 uM after 4 hrs by Mito tracker green-based confocal laser scanning microscopic analysis; format: ADME; settings: mda-mb-231, 4 h
[14] = Drug uptake in lysosome of human MDA-MB-231 cells at 10 uM after 4 hrs by Lyso tracker green-based confocal laser scanning microscopic analysis; format: ADME, subcellular; settings: mda-mb-231, 4 h
[15] = Drug uptake in endoplasmic reticulum of human MDA-MB-231 cells at 10 uM after 4 hrs by ER tracker green-based confocal laser scanning microscopic analysis; format: ADME, subcellular; settings: mda-mb-231, 4 h
MDA-MB-231 [16] = assay: Induction of ROS generation in human MDA-MB-231 cells incubated with DCF-DA probe for 30 mins prior to ROS scavenger NAC addition 1 hr before 2 J/cm2 light irradiation and measured after 1 hr post irradiation by flow cytometric analysis; format: functional, cell-based
[17] = Tmax in tumor of BALB/c mouse xenografted with mouse 4T1 cells at 10 mg/kg, iv measured after […] by fluorescence assay; format: ADME, organism-based, Neoplasm
MDA-MB-231 [18] = assay: Phototoxicity against human MDA-MB-231 cells assessed as cell viability incubated with ROS scavenger NAC 1 hr before 2 J/cm2 light irradiation by MTT assay relative to control; format: functional
MDA-MB-231 [19] = assay: Induction of apoptosis in human MDA-MB-231 cells assessed as late apoptotic cells after 24 hrs by Annexin-V FITC/propidium iodide staining based flow cytometric analysis (reference value: 1.28%); format: cell-based; settings: mda-mb-231, 24 h
MDA-MB-231 [20] = assay: Induction of apoptosis in human MDA-MB-231 cells assessed as necrotic cells after 24 hrs by Annexin-V FITC/propidium iodide staining based flow cytometric analysis (reference value: 4.24%); format: cell-based; settings: mda-mb-231, 24 h
MDA-MB-231 [21] = assay: Induction of apoptosis in human MDA-MB-231 cells assessed as late apoptotic cells after 24 hrs upon light irradiation by Annexin-V FITC/propidium iodide staining based flow cytometric analysis (reference value: 1.28%); format: functional
MDA-MB-231 [22] = assay: Induction of apoptosis in human MDA-MB-231 cells assessed as necrotic cells after 24 hrs upon light irradiation by Annexin-V FITC/propidium iodide staining based flow cytometric analysis (reference value: 4.24%); format: functional
MDA-MB-231 [23] = assay: Induction of apoptosis in human MDA-MB-231 cells assessed as viable cells after 24 hrs upon light irradiation by Annexin-V FITC/propidium iodide staining based flow cytometric analysis (reference value: 93.27%); format: functional
4T1 [24] = assay: Induction of apoptosis in mouse 4T1 cells xenografted in BALB/c mouse at 4 mg/kg, iv pretreated for 24 hrs followed by 50 J/cm2 light irradiation by TUNEL assay; format: functional, organism-based
4T1 [25] = assay: Induction of apoptosis in mouse 4T1 cells xenografted in BALB/c mouse at 4 mg/kg, iv after 24 hrs by TUNEL assay; format: functional, organism-based
Mus musculus [26] = assay: Toxicity in BALB/c mouse xenografted with mouse 4T1 cells assessed as effect on body weight at 4 mg/kg, iv measured at day 22 post last dose; format: organism-based; settings: in vivo
Mus musculus [27] = assay: Toxicity in BALB/c mouse xenografted with mouse 4T1 cells assessed as effect on body weight at 2 mg/kg, iv pre-tretaed for 24 hrs followed by 50 J/cm2 light irradiation and measured at day 22 post dose; format: organism-based; settings: in vivo
Mus musculus [28] = assay: Toxicity in BALB/c mouse xenografted with mouse 4T1 cells assessed as effect on body weight at 4 mg/kg, iv pre-tretaed for 24 hrs followed by 50 J/cm2 light irradiation and measured at day 22 post dose; format: organism-based; settings: in vivo
Mus musculus [29] = assay: Hepatotoxicity in BALB/c mouse xenografted with mouse 4T1 cells assessed as pathological changes in liver at 4 mg/kg, iv measured at day 22 post dose by hematoxylin and eosin staining based light microscopic analysis; format: toxicity, organism-based; settings: in vivo
Mus musculus [30] = assay: Hepatotoxicity in BALB/c mouse xenografted with mouse 4T1 cells assessed as pathological changes in liver at 4 mg/kg, iv pre-tretaed for 24 hrs followed by 50 J/cm2 light irradiation and measured at day 22 post dose by hematoxylin and eosin staining based light microscopic analysis; format: toxicity, organism-based; settings: in vivo
Mus musculus [31] = assay: Nephrotoxicity in BALB/c mouse xenografted with mouse 4T1 cells assessed as pathological changes in kidney at 4 mg/kg, iv measured at day 22 post dose by hematoxylin and eosin staining based light microscopic analysis; format: toxicity, organism-based; settings: in vivo
Mus musculus [32] = assay: Nephrotoxicity in BALB/c mouse xenografted with mouse 4T1 cells assessed as pathological changes in kidney at 1 to 4 mg/kg, iv pre-tretaed for 24 hrs followed by 50 J/cm2 light irradiation and measured at day 22 post dose by hematoxylin and eosin staining based light microscopic analysis; format: toxicity, organism-based; settings: in vivo
Mus musculus [33] = assay: Toxicity in BALB/c mouse xenografted with mouse 4T1 cells assessed as pathological changes in spleen at 1 to 4 mg/kg, iv pre-tretaed for 24 hrs followed by 50 J/cm2 light irradiation and measured at day 22 post dose by hematoxylin and eosin staining based light microscopic analysis; format: organism-based; settings: in vivo

SMILES | Activity [1] | viability at 0.5 µM (4T1 [2]) | viability at 0.5 µM (4T1 [3]) | Activity (HUVEC) | Activity [4] | inhibition in vivo at 1 mg/kg (4T1 [5]) | selectivity ratio at 0.5 µM [6] | selectivity ratio at 0.5 µM [7] | Drug uptake [8] | Drug uptake [9] | Drug uptake [10] | Drug uptake [11] | Drug uptake [12] | Drug uptake [13] | Drug uptake [14] | Drug uptake [15] | Activity (MDA-MB-231 [16]) | Tmax [17] | Activity (MDA-MB-231 [18]) | Activity (MDA-MB-231 [19]) | further results
C=Cc1c(C)c2cc3nc(cc4[nH]c(cc5nc(cc1[nH]2)C(C)=C5C(C)OCCCCCC)c(C)c4CCC(=O)[O-])C(CCC(=O)[O-])=C3C.[Na+].[Na+] (stereo not drawn) | Dose-dependent effect | 61.7% | 47.3% | Non-Toxic | Non-Toxic | 27.8% | 68.5 | 90.8 | Active | Tde | Not Active | Not Active | Not Active | Active | Active | Active | inactive | 12 h | >80% | 2.34% | Activity (MDA-MB-231 [20]): 0.58%; Activity (MDA-MB-231 [21]): 53.54%; Activity (MDA-MB-231 [22]): 10.12%; Activity (MDA-MB-231 [23]): 32.52%; Activity (4T1 [24]): Active; Activity (4T1 [25]): inactive; Activity (Mus musculus [26]): Non-Toxic; Activity (Mus musculus [27]): Non-Toxic; Activity (Mus musculus [28]): Non-Toxic; Activity (Mus musculus [29]): Non-Toxic; Activity (Mus musculus [30]): Non-Toxic; Activity (Mus musculus [31]): Non-Toxic; Activity (Mus musculus [32]): Non-Toxic; Activity (Mus musculus [33]): Non-Toxic
C=CC1=C(C)c2cc3[nH]c(cc4nc(cc5[nH]c(cc1n2)c(C)c5CCC(=O)[O-])C(CCC(=O)[O-])=C4C)c(C)c3C(C)OCCCCCC.[Na+].[Na+] (stereo not drawn) | Dose-dependent effect | 76.1% | 54.6% | Non-Toxic | Non-Toxic | 15.4% | 21.7 | 24.2 | Active | Tde | Not Active | Not Active | Not Active | Active | Active | Active | inactive | 12 h | >80% | 2.73% | Activity (MDA-MB-231 [20]): 0.4%; Activity (MDA-MB-231 [21]): 40.09%; Activity (MDA-MB-231 [22]): 11.12%; Activity (MDA-MB-231 [23]): 41.63%; Activity (4T1 [24]): Active; Activity (4T1 [25]): inactive; Activity (Mus musculus [26]): Non-Toxic; Activity (Mus musculus [27]): Non-Toxic; Activity (Mus musculus [28]): Non-Toxic; Activity (Mus musculus [29]): Non-Toxic; Activity (Mus musculus [30]): Non-Toxic; Activity (Mus musculus [31]): Non-Toxic; Activity (Mus musculus [32]): Non-Toxic; Activity (Mus musculus [33]): Non-Toxic
